Converted amounts (≈) assume the structure as drawn. Read-outs that look alike come from different tables or passages of the source.
Columns and labels:
[1] = test system: PA_1081725; settings: isolate purchased from JMI Laboratories, no MIC method given; cited from earlier work
[2] = test system: PA_1076058; settings: isolate purchased from JMI Laboratories, no MIC method given; cited from earlier work
[3] = test system: P. aeruginosa PAO1; parameters: method as in PMID 31038945; settings: planktonic growth, cited from earlier work
[4] = molecular target: T1, BfrB (Pseudomonas aeruginosa, UniProt Q9HY79); experiment: Dissociation constant (Kd) for BfrB by fluorescence polarization; assay type: binding
T1 sequence (Q9HY79 whole entry): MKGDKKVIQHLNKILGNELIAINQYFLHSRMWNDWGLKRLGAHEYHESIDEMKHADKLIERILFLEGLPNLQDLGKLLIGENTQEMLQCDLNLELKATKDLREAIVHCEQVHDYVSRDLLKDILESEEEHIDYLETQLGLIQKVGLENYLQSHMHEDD
Protocol: Dissociation constants for the interaction between BfrB and 3-aminoisoindoline-1,3-dione derivatives (Table 1, Figure S1) were measured in vitro with a fluorescence polarization method based on the intrinsic fluorescence of the isoindoline-1,3-dione moiety, as described previously.[25]
25 (A) and KM-5-66 (B) for BfrB, evaluated by fluorescence polarization, as described previously1.
Values were obtained in 100 mM potassium phosphate buffer (pH 7.6) containing 1 mM TCEP and
0.5% DMSO. The initial concentrations of KM-5-25 and KM-5-66 were 5 µM. The Kd values are the
average and standard deviation from three independent measurements. […]

[5] = test system: P. aeruginosa PAO1; experiment: Half maximal inhibitory concentration (IC50) on planktonic growth, CFU/mL enumeration; assay type: cell-based, Pseudomonas aeruginosa; settings: 24 h, 35 °C, 2% DMSO, this work
Protocol: Chemicals were purchased from Fisher Scientific unless otherwise stated. P. aeruginosa PAO1 was obtained from the University of Washington Genome center.[81] The PAO1 strain expressing enhanced yellow fluorescent protein (EYFP) was prepared previously.[26] Clinical isolates of P. aeruginosa were purchased from JMI Laboratories (North Liberty, IA, USA). […] Starter cultures were grown from a single colony at 37 °C and shaking at 220 rpm for 14 h in 5 mL PI media supplemented with 10 μM Fe. Pellicle biofilms were cultured for 48 h at 30 °C in PI media supplemented with 20 μM Fe. Surface-attached biofilms were cultured in AB minimal media[82] supplemented with trace metals [0.15 μM (NH4)2MoO4, 3 μM CuSO4, 2 μM Co(NO3)2, 9.4 μM Na2B4O7, and 7.6 μM ZnSO4], 3 mM glucose and 15 μM Fe. Iron supplementation was carried out by addition of a small volume of filter-sterilized 10 mM (NH4)2Fe(SO4)2 (pH ∼ 2.0) solution. […]; IC50 values (Table 1, Figure S1) were determined as reported previously[25] with small modifications. In brief: precultures of P. aeruginosa PAO1 (5 mL) were grown in LB media for 13 h at 37 °C and 220 rpm in 50 mL conical tubes (VWR International, PA). The cells were centrifuged for 5 min at 4000 rpm and 4 °C, washed two times and then diluted in buffer (100 mM KH2PO4 and 15 mM (NH4)2SO4) to an optical density at 600 nm (OD600) of 0.1. A small volume of compound stock solution (10 mM) was transferred to a microcentrifuge tube, initially diluted with DMSO to 20 μL, and then diluted to 1 mL with preculture cell suspension in defined media with OD600 = 0.0001, so the final DMSO concentration is 2%. The resultant cell suspension (200 μL) was transferred to a clear-bottom polystyrene 96-well plate (VWR) covered with a lid and incubated at 35 °C and 205 cpm for 24 h in a Synergy H1 microplate reader (Biotek Instruments Inc., Vermont). The cell cultures were serially diluted and then plated on PI Agar (PIA; BD biosciences) plates for enumeration of viable cells (CFU/mL). The % growth was calculated from the ratio CFU/mL(treated)/CFU/mL(untreated control). To calculate the IC50 values, the % growth was plotted as a function of compound concentration, expressed as log[compound] (μM), and fitted to the 4-parameter logistic model describing the sigmoid-shaped response pattern (eq 1),[84] where b is the slope factor, max is the upper asymptote (plateau), and min is the lower asymptote. Values are the average and standard deviation from three independent experiments. [drawing 1] 1

[6] = Aqueous solubility; assay type: physicochemical; settings: for solubility: PBS buffer, read-out: solubility in PBS buffer; for aqueous solubility (in words): aqueous solution
[7] = test system: P. aeruginosa; parameters: method as in PMID 11420333; settings: cited from earlier work
[8] = test system: EYFP-expressing P. aeruginosa PAO1 biofilms; experiment: Flow cell biofilm assay, CLSM imaging and COMSTAT viable biomass; assay type: cell-based, Pseudomonas aeruginosa; settings: 3-day old flow cell biofilms, 24 h treatment, 25× MIC
From the text: The treated biofilms were counterstained with the cell impermeable fluorescent nucleic acid dye Sytox Red and then imaged with the aid of confocal laser scanning microscopy (CLSM).
Image stacks were acquired with a z-step size of 0.3 μm at randomly chosen positions.

[9] = test system: EYFP-expressing P. aeruginosa PAO1 pellicles; experiment: Viable cells (CFU/mL) dispersed from pellicle biofilms; assay type: cell-based, Pseudomonas aeruginosa; settings: 2-day old pellicles, 24 h
Protocol: Pellicle biofilms were grown as described above. Planktonic and loosely attached cells were washed (3 times) by immersing the coverslip-adhered pellicles (biofilm facing up) into a well of a 12-well plate containing 3 mL PBS, and incubating (5 min) with gentle rocking. To remove the pellicle from the coverslip, break the extracellular matrix and release cells from the biofilm, the coverslip-adhered pellicle was placed in a 50 mL conical tube containing a 2 mL suspension of zirconia beads (0.1 mm diameter, BioSpec Products), 10 mL PBS, 0.2 μg/mL alginate lyase and 0.2 μg/mL DNase. The resultant mixture was incubated at room temperature for 3 min, followed by vigorous vortexing for 4 min. After sedimentation of the zirconia beads, a 100 μL aliquot was used for serial dilution and plating on PIA plates for subsequent enumeration of viable cells (CFU/mL).

[10] = test system: Pellicles of P. aeruginosa PAO1 expressing EYFP; experiment: Pellicle biofilm assay, CLSM imaging and COMSTAT viable biomass; assay type: cell-based, Pseudomonas aeruginosa; settings: 2-day old pellicles, 24 h
Protocol: Pellicle biofilms of EYFP-expressing P. aeruginosa PAO1 or clinical isolates were grown in PI media supplemented with 20 μM Fe. Starter cultures were diluted to OD600 = 0.001 in 4 mL media, placed in 35 × 10 mm Petri dishes and incubated statically at 30 °C for 48 h. The pellicles were transferred onto circular (1.5 cm diameter) glass coverslips by gently allowing the surface of a coverslip to contact a pellicle. The pellicle-adhered coverslip was washed in PBS and then deposited on top of 1.5 mL AB challenge media contained in a well of a 12-well microplate, with the pellicle exposed to the media. […] The coverslip-adhered pellicles were exposed to challenge media at 30 °C for 24 h, changing the challenge media every 12 h by transferring the pellicle-adhered coverslip to a new plate containing prewarmed challenge media.
Excess fluorescent dye was washed with PBS, the coverslip was mounted on a glass slide using 5 μL SlowFade (Invitrogen Life Technologies) and the edges sealed with fingernail polish. CLSM image stacks (z-step size of 0.3 μm) were acquired with the aid of a Leica TCS SP8 microscope, as described above. Quantitative analysis was performed by determination of pellicle biomass using COMSTAT[55] and the Otsu method of automatic thresholding.[86]

[11] = molecular target: T1, BfrB; settings: Bfd binding sites on BfrB equivalent and independent; cited from earlier work
[12] = Pseudomonas aeruginosa, PAO1, defined media, read-out: IC50

For NCC[C@H](O)C(=O)N[C@@H]1C[C@H](N)[C@@H](O[C@H]2O[C@H](CN)[C@@H](O)[C@H](O)[C@H]2O)[C@H](O)[C@H]1O[C@H]1O[C@H](CO)[C@@H](O)[C@H](N)[C@H]1O [Amikacin], the MIC [1] is given as 16 µg/mL (≈ 27.3 µM) and the MIC [2] is given as 4 µg/mL (≈ 6.83 µM).

For Nc1cccc2c1C(=O)NC2=O [Analog 8, 4-aminoisoindoline-1,3-dione], the IC50 [3] is given as “not active”.

For O=C1NC(=O)c2c(NCc3ccccc3O)cccc21 [Analog 11], the IC50 ([3]; read-out: IC50) is given as 258 ± 23 µM.

For O=C1NC(=O)c2c(NCCCc3cccc(O)c3)cccc21 [Analog 16], the IC50 ([3]; read-out: IC50) is listed as 121 ± 4 µM.

In the case of C[C@H]1[C@H](NC(=O)/C(=N\OC(C)(C)C(=O)O)c2csc(N)n2)C(=O)N1S(=O)(=O)O [Aztreonam], the MIC [1] is listed as over 16 µg/mL and the MIC [2] is listed as 16 µg/mL (≈ 36.7 µM).

With O=C1NC(=O)c2c(NCc3cccc(O)c3)cccc21 [BN-XIV-53] the Kd [4] was 21 ± 3 µM and the IC50 ([5]; defined media) was “not active at 120 μM”.

In the case of CC(C)(O/N=C(\C(=O)N[C@@H]1C(=O)N2C(C(=O)[O-])=C(C[n+]3ccccc3)CS[C@H]12)c1csc(N)n1)C(=O)O [Ceftazidime], the MIC [1] is listed as over 32 µg/mL and the MIC [2] is listed as over 32 µg/mL.

In the case of C[C@H]1c2cccc(O)c2C(=O)C2=C(O)[C@]3(O)C(=O)C(C(N)=O)=C(O)[C@@H](N(C)C)[C@@H]3[C@@H](O)[C@@H]21 [Doxycycline], the MIC [1] is listed as 4 µg/mL (≈ 9 µM) and the MIC [2] is listed as over 8 µg/mL.

For CNC(C)C1CCC(N)C(OC2C(N)CC(N)C(OC3OCC(C)(O)C(NC)C3O)C2O)O1 (stereo not shown) [Gentamicin], the MIC [1] is given as 4 µg/mL (≈ 8.38 µM) and the MIC [2] is given as over 16 µg/mL.

In the case of O=C1NC(=O)c2c(NCCCc3cc(F)ccc3O)cccc21 [JAG-5-6, 4-((3-(5-fluoro-2-hydroxyphenyl)propyl)amino)isoindoline-1,3-dione], the Kd [4] is reported as 0.43 ± 0.07 µM and the IC50 [5, 12] is reported as 54 ± 9 µM.

For O=C1NC(=O)c2c(NCc3cc(F)ccc3O)cccc21 [JAG-5-7, 4-((5-Fluoro-2-hydroxybenzyl)amino)isoindoline-1,3-dione], the Kd [4] was 7 ± 2 µM and the IC50 [5, 12] was 128 ± 26 µM.

In the case of O=C1NC(=O)c2c(NCCCc3ccccc3O)cccc21 [KM-5-28], the Kd [4] is reported as 1.4 ± 0.2 µM and the IC50 [5, 12] is reported as 96 ± 1 µM.

In the case of O=C1NC(=O)c2c(NCc3c(O)cccc3Cl)cccc21 [KM-5-29, 4-((6-Chloro-2-hydroxybenzyl)amino)isoindoline-1,3-dione], the Kd [4] is reported as 6 ± 0.5 µM, the solubility [6] is reported as under 30 µM and the “aqueous solubility (in words)” value [6] is reported as “poorly soluble in aqueous solution”.

O=C1NC(=O)c2c(NCc3cccc(Cl)c3O)cccc21 [KM-5-30, 4-((3-Chloro-2-hydroxybenzyl)amino)isoindoline-1,3-dione] gave a Kd [4] of 6 ± 1 µM and an IC50 [5, 12] of 156 ± 30 µM.

O=C1NC(=O)c2c(NCc3cc(O)cc(Cl)c3)cccc21 [KM-5-50, 4-((5-Chloro-3-hydroxybenzyl)amino)isoindoline-1,3-dione] showed a Kd [4] of 11 ± 2 µM and an IC50 [5, 12] of 82 ± 16 µM.

In the case of O=C1NC(=O)c2c(NCCCc3cc(Cl)ccc3O)cccc21 [KM-5-54], the Kd [4] is reported as 0.22 ± 0.04 µM, the solubility [6] is reported as under 30 µM and the “aqueous solubility (in words)” value [6] is reported as “poor water solubility”.

In the case of O=C1NC(=O)c2c(NCCCc3cc(O)cc(O)c3)cccc21 [KM-5-57], the Kd [4] is reported as 2.5 ± 0.4 µM and the IC50 ([5]; defined media) is reported as “not active at 200 μM”.

In the case of C[C@@H](O)[C@H]1C(=O)N2C(C(=O)O)=C(S[C@@H]3CN[C@H](C(=O)N(C)C)C3)[C@H](C)[C@H]12 [Meropenem], the MIC [1] is listed as 32 µg/mL (≈ 83.4 µM) and the MIC [2] is listed as 4 µg/mL (≈ 10.4 µM).

For O=C(O)c1cn(C2CC2)c2cc(N3CCNCC3)c(F)cc2c1=O [ciprofloxacin], the MIC [1] is listed as 16 µg/mL (≈ 48.3 µM), the MIC [2] is listed as over 16 µg/mL and the MIC ([7]; reported MIC converted to μM) is listed as 0.75 µM. The MIC ([7]; reported MIC) was 0.25 µg/mL.

For NC[C@H]1O[C@H](O[C@H]2[C@H](O)[C@@H](O[C@H]3O[C@H](CO)[C@@H](O)[C@H](N)[C@H]3O)[C@H](N)C[C@@H]2N)[C@H](N)C[C@@H]1O [tobramycin], the MIC [1] is given as 16 µg/mL (≈ 34.2 µM), the “% survival (viable biomass, COMSTAT)” value [8] is given as about 70% and the MIC [2] is given as over 16 µg/mL. The MIC ([7]; reported MIC converted to μM) was 1.07 µM, the MIC ([7]; reported MIC) was 0.5 µg/mL and the “% cell survival, CFU/mL(after treatment)/CFU/mL(pretreatment)” value (shortened to “% cell survival”) ([9]; 25× MIC) was about 70%. The “% cell survival” value ([9]; 50× MIC) was about 70% and the “tolerance of pellicle biofilms (CLSM)” value ([10]; 25× and 50× the MIC) was “tolerant”.

For colistin, the “% survival (viable biomass, COMSTAT)” value [8] is given as about 20%, the MIC ([7]; reported MIC converted to μM) is given as 0.79 µM and the MIC ([7]; reported MIC) is given as 1 µg/mL. The “% cell survival” value ([9]; 25× MIC) was about 10%, the “% cell survival” value ([9]; 50× MIC) was about 1% and the “fluorescence signal from viable cells expressing EYFP” value ([10]; 50× MIC) was “undetectable”. For the same molecule, the “susceptibility of pellicle biofilms (CLSM)” value ([10]; concentrations above 10× MIC) was “susceptible”.

B1: Bfd: bacterioferritin-associated ferredoxin, a [2Fe-2S] protein that binds BfrB to mobilize stored iron (protein, UniProt Q9HY80 1-73, looked up)
Bacterioferritin-associated …: MYVCLCQGVTDNQIRDAIYEGCCSYREVREATGVGTQCGKCACLAKQVVRETLNDLQSAQPVPAFGTTAFVAA
For B1, the Kd [11] is listed as 3 µM.

From PMC7802073, “Small Molecule Inhibitors of the Bacterioferritin (BfrB)–Ferredoxin (Bfd) Complex Kill Biofilm-Embedded Pseudomonas aeruginosa Cells” (ACS Infectious Diseases, 2020)
